Test results published in paper PMC3365829 (ACS medicinal chemistry letters, 2012).

Assay: In vivo pharmacokinetics in mice
Details: mouse, iv, 3 mg/kg

clearance: 19.5 mL/min/kg
SMILES: CCCCNc1ncc2c(-c3ccc(F)cc3)nn(C[C@H]3CC[C@H](N)CC3)c2n1 [Compound 43]
